Series [1] concerns HIV-1 strain 92HT599. Put plainly: Antiviral activity against HIV-1 strain 92HT599 in MT2 cells (p24 estimation). Type of series: cell-based. The conditions noted are these: HIV-1 92HT599, ~96 hours. The protocol: MT2 cells were infected with HIV-1 strain 92HT599 (10 TCID 50/30000 cells). The infected cells were plated at the concentration of ˜30,000 cells per well in 96 well plate. Test compound was added to the micro plate in defined format with the final concentration of DMSO (vehicle) is not more than 1%. Incubation was carried out in CO2 incubator for ˜96 hours for viral infection. At the end of incubation period an aliquot from each well was taken for p24 estimation. The quantitation of p24 is an index for antiviral activity of the compound. Percent inhibition was calculated with reference to control values (vehicle controls). p24 estimation was carried out using Advance biosciences kit as per the procedure detailed by supplier.

The test system of series [2] is pNL4-3 WT. Put plainly: Antiviral activity against pNL4-3 WT strain in MT4 cells (p24 estimation). Type of series: cell-based, HIV-1. Particulars: 4 days. The protocol:
(§1) MT4 cells were Transfected with HIV-1 Plasmid (pNL4-3-WT & V7A) (Cells were incubating with required number of TCID50 of HIV-1 for 1.5 h at 37° C.). After infection, the infected cells were plated at the concentration of 3×10^4 cells per well in 96 well plate. Test compound was added to the test plate in defined format with the final concentration of DMSO is not more than 1%. Incubation was carried out in CO2 incubator for 4 days for viral infection. At the end of incubation period an aliquot from each well was taken for p24 estimation. p24 estimation was carried out using Advance biosciences kit as per the procedure detailed by supplier.

Series [3] relates to pNL4-3 V7A. Put plainly: Antiviral activity against pNL4-3 V7A strain in MT4 cells (p24 estimation). Type of series: cell-based, HIV-1. Particulars: 4 days. As for the experimental part: as §1
The subject of series [4] is cells. Put plainly: Cyto-toxicity (MTT assay). Type of series: cell-based.
The nature of series [5]: Single dose oral pharmacokinetic study. It counts as in vivo. Particulars: Mice oral PK @30 mg/kg; plasma; vehicle 10% Solutol+20% PEG. A digest of the protocol:
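Rats or mice dosed orally at 30 mg/kg in 10% Solutol+20% PEG. Acetonitrile precipitation, then LC-MS/MS quantification for PK parameters.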

The mark [6] stands for this setting: 0% serum binding assay, read-out: IC50 0% serum.
The mark [7] stands for this setting: 40% serum binding assay, read-out: IC50 40% serum.

Usually IC50 stands for the point on the concentration scale where inhibition reaches its midpoint. In general, AUC(0-t) refers to exposure summed from dosing to a finite time, without extrapolation to infinity. Low values mean less exposure, high ones more exposure. Broadly, the Cmax is the highest concentration seen after dosing.

Like-named read-outs stand apart in the source and are kept apart here.

For the compound `CC(C)C1=C2[C@H]3CC[C@@H]4[C@@]5(C)CC[C@H](OC(=O)[C@H]6C[C@@H](C(=O)O)C6(C)C)C(C)(C)[C@@H]5CC[C@@]4(C)[C@]3(C)CC[C@@]2(NC(=O)C(C)(C)NS(=O)(=O)c2ccc(Cl)cc2)CC1=O` [Example 65, (1R,3S)-3-((((3aR,5aR,5bR,7aR,9S,11aR,11bR,13aS)-3a-(2-((4-chlorophenyl)sulfonamido)-2-methylpropanamido)-1-isopropyl-5a,5b,8,8,11a-pentamethyl-2-oxo-3,3a,4,5,5a,5b,6,7,7a,8,91,111,11a,11b,12,13,13a-octadecahydro-2H-cyclopenta[a]chrysen-9-yl)oxy)carbonyl)-2,2-dimethylcyclobutane-1-carboxylic acid], the IC50 is under 3 nM in series [1] (setting [6]), under 50 nM in series [1] (setting [7]), over 10 nM in series [2] and over 50 nM in series [3]. Also, the Cytotoxicity % viability was 27% in series [4] (0.01 μM, MTT, 4 days (Table 3)); 3% in series [4] (0.1 μM, MTT, 4 days (Table 3)); 2% in series [4] (1 μM, MTT, 4 days (Table 3)). Also, in series [5], the AUC(0-t) came out at 145.21 µg·h/mL. In series [5], this compound registered a Cmax of 7383 ng/mL.

Regarding `CC(C)C1=C2[C@H]3CC[C@@H]4[C@@]5(C)CC[C@H](OC(=O)[C@H]6C[C@@H](C(=O)O)C6(C)C)C(C)(C)[C@@H]5CC[C@@]4(C)[C@]3(C)CC[C@@]2(NC(=O)C(C)(C)N)CC1=O.Cl` [Example 74, (1R,3S)-3-((((3aR,5aR,5bR,7aR,9S,11aR,11bR,13aS)-3a-(2-amino-2-methylpropanamido)-1-isopropyl-5a,5b,8,8,11a-pentamethyl-2-oxo-3,3a,4,5,5a,5b, 6,7,7a,8,9,10,1111a,11b,12,13,13a-octadecahydro-2H-cyclopenta[a]chrysen-9-yl)oxy)carbonyl)-2,2-dimethylcyclobutane-1-carboxylic acid hydrochloride], the IC50 in series [1] (setting [6]) was under 3 nM; in series [1] (setting [7]), under 50 nM. The results for the Cytotoxicity % viability in series [4] (0.01 µM), in series [4] (0.1 µM) and in series [4] (1 µM) were 61%, 14% and 19%, respectively.

With `CC(C)C1=C2[C@H]3CC[C@@H]4[C@@]5(C)CC[C@H](OC(=O)[C@H]6C[C@@H](C(=O)O)C6(C)C)C(C)(C)[C@@H]5CC[C@@]4(C)[C@]3(C)CC[C@@]2(NC(=O)C(C)(C)NC(=O)[C@@H]2CCCN2)CC1=O.Cl` [Example 76, (1R,3S)-3-((((3aR,5aR,5bR,7aR,9S,11aR,11bR,13aS)-1-isopropyl-5a,5b,8,8,11a-pentamethyl-3a-(2-methyl-2-((S)-pyrrolidine-2-carboxamido)propanamido)-2-oxo-3,3a,4,5,5a,5b,6,77a,8,9,10,11,11a,11b,12,13,13a-octadecahydro-2H-cyclopenta[a]chrysen-9-yl)oxy)carbonyl)-2,2-dimethylcyclobutane-1-carboxylic acid hydrochloride], the IC50 was under 3 nM in series [1] (setting [6]) and 50 to 200 nM in series [1] (setting [7]). The Cytotoxicity % viability in series [4] (0.01 µM) was found to be 59%; in series [4] (0.1 µM) it was 6%; in series [4] (1 µM), 6%.

Values taken from patent US20170008921A1, “C-3 NOVEL TRITERPENONE WITH C-28 REVERSE AMIDE DERIVATIVES AS HIV INHIBITORS” (HETERO RESEARCH FOUNDATION, priority 2015, published 2017).
